According to PubChem BioAssay AID2060908 (Molecular Pharmacology Branch, DTP, NCI, 2025):

Test system: 186277-243-T-J2-PDC complex spheroids, viability
Assay: Anticancer human tumor 186277-243-T-J2-PDC patient-derived colon adenocarcinoma cell line growth inhibition [RAS]
Conditions: for IC50: curve of first compound; for viability, T/C: stronger effect = lower value; active means viability on the fitted dose curve at most 10% of control; inactive means the rest
Description: RAS pathway inhibitors in Combinations in Complex Spheroids
A high-throughput screen of multi-cell type tumor spheroids was designed to identify active combinations of RAS pathway inhibitors and targeted small molecules. Complex spheroids include a stromal component modeled by human endothelial cells (HUVEC) and fibroblasts modeled by human mesenchymal stem cells (MSCs). The concentration ranges selected for each drug and investigational agent were based upon clinically achievable concentrations if the clinical Cmax of the agent was known.
Compounds. The drugs and investigational agents: abemaciclib (NSC768073), cobimetinib (NSC768068), divarasib (GDC6063, NSC841802), docetaxel (NSC628503), GDC-1971 (RLY-1971, NSC841576), gemcitabine (NSC613327), inavolisib (NSC800729), ipatasertib (NSC767898), KB-0742 (NSC834161), MRTX-1133 (NSC836407), osimertinib (NSC779217), RMC-4630 (NSC839698), RMC-6236 (NSC851965), RMC-6291 (NSC852671), Ro-3306 (NSC812927), sapanisertib (NSC764658), SN-38 (NSC673596), staurosporine (NSC755774), SY5609 (NSC837396), and tovorafenib (DAY101, NSC766906), were obtained from the National Cancer Institute (NCI) Developmental Therapeutics Program Chemical Repository. The FDA-approved anticancer drug set is available from the NCI Developmental Therapeutics Program. […] The stock solutions were prepared in dimethyl sulfoxide (DMSO, Sigma-Aldrich, St. Louis, MO, cat. D2650) at 800-fold the tested concentration and stored at -70 degrees C prior to their use. All drugs and investigational agents were tested over a range starting from a high concentration at or near the clinical Cmax and decreasing in half-log increments. If the clinical Cmax for an agent had not been determined, the highest concentration tested was 10 microM.
Cell Culture. All cells were maintained in an incubator at 37 degrees C and 5% CO2 with 95% humidity. The PDC lines were cultured according to standard operating procedures established by the NCI PDMR. All PDCs were thawed and cultured in Matrigel-coated flasks prepared with a working solution of 1X Ham's F-12 nutrient mix, without supplementation (Invitrogen, Waltham, MA, cat. 11765054), 100 U/mL penicillin-streptomycin (Invitrogen, cat. 15140122), and 2.5% Matrigel (Corning Inc., Corning, NY, cat. 354248) for the first three passages. The 362531-283-R-J2-PDC and 782815-120-R-J1-PDC lines were cultured in 6C/Colon 1B media, which includes advanced DMEM/F-12 (Thermo Fisher Scientific, cat. 12634028), 10 mM HEPES (Thermo Fisher Scientific, cat. 15630080), 1X GlutaMAX supplement (Thermo Fisher Scientific, cat. 35050061), 0.1 mg/mL primocin (InvivoGen, San Diego, CA, cat. ant-pm-2), 10% defined fetal bovine serum, heat inactivated (HyClone Laboratories Inc., Logan, UT, cat. SH30070.03HI), 50% L-WRN conditioned media (ATCC, cat. CRL-3276), 1.25 mM N-Acetyl-L-cysteine (Sigma-Aldrich, cat. A9165), 10 mM nicotinamide (Sigma-Aldrich, cat. N0636), 1X B-27 supplement (Thermo Fisher Scientific, cat. 17504044), 1X N-2 supplement (Thermo Fisher Scientific, cat. 17502048), 50 ng/mL human EGF (Thermo Fisher Scientific, cat. PHG0311), and 10 microM Y-27632 dihydrochloride (Tocris Bioscience, cat. 1254). The K12877-001-R-J1-PDC line was cultured in 6I media, which includes all 6C/Colon 1B media plus 10 ng/mL human FGF-10 (PeproTech, cat. 100-26), 1 ng/mL human FGF-2 (PeproTech, cat. 100-18B), 1 µM prostaglandin E2 (Tocris Bioscience, cat. 2296), […] hydrocortisone (Sigma-Aldrich, cat. H4001), and […] bovine insulin (Sigma-Aldrich, cat. I6634). The K86415-001-R-J1-PDC line was cultured in 6D media, which includes all 6C/Colon 1B media components minus the L-WRN conditioned media. The 485176-168-R4-J1-PDC was cultured in PANC media, which includes all 6C/Colon 1B media plus 100 ng/mL human FGF-10 (PeproTech, cat. 100-26), 500 nM SB-431542 (Selleckchem, cat. S1067), and 10 nM gastrin (Tocris Bioscience, cat. 3006). […]
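Further: spheroids exposed to compounds for 7 days before viability read.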

CCc1c2c(nc3ccc(O)cc13)-c1cc3c(c(=O)n1C2)COC(=O)[C@]3(O)CC + C#Cc1c(F)ccc2cc(O)cc(-c3ncc4c(N5CC6CCC(C5)N6)nc(OCC56CCCN5CC(F)C6)nc4c3F)c12
inactive: viability, T/C (second compound 0.0316 µM, first compound 0.000949 µM) 72.5% | viability, T/C (second compound 0.0316 µM, first compound 0.003 µM) 40.5% | viability, T/C (second compound 0.0316 µM, first compound 0.00949 µM) 36.7% | viability, T/C (second compound 0.0316 µM, first compound 0.03 µM) 20.9% | viability, T/C (second compound 0.0316 µM, first compound 0.0949 µM) 8.73% | viability, T/C (second compound 0.1 µM, first compound 0.000949 µM) 35.5% | viability, T/C (second compound 0.1 µM, first compound 0.003 µM) 21.9% | viability, T/C (second compound 0.1 µM, first compound 0.00949 µM) 16.6% | viability, T/C (second compound 0.1 µM, first compound 0.03 µM) 12.2% | viability, T/C (second compound 0.316 µM, first compound 0.000949 µM) 14.3% | viability, T/C (second compound 0.316 µM, first compound 0.003 µM) 14.1% | viability, T/C (second compound 0.316 µM, first compound 0.00949 µM) 9.89%
active: viability, T/C (second compound 0.0316 µM, first compound 0.3 µM) 5.87% | viability, T/C (second compound 0.1 µM, first compound 0.0949 µM) 5.42% | viability, T/C (second compound 0.1 µM, first compound 0.3 µM) 6.04% | viability, T/C (second compound 0.316 µM, first compound 0.03 µM) 7.42% | viability, T/C (second compound 0.316 µM, first compound 0.0949 µM) 5.03% | viability, T/C (second compound 0.316 µM, first compound 0.3 µM) 3.68% | viability, T/C (second compound 1 µM, first compound 0.000949 µM) 7.55% | viability, T/C (second compound 1 µM, first compound 0.003 µM) 8.61% | viability, T/C (second compound 1 µM, first compound 0.00949 µM) 8.45% | viability, T/C (second compound 1 µM, first compound 0.03 µM) 6.92% | viability, T/C (second compound 1 µM, first compound 0.0949 µM) 4.24% | viability, T/C (second compound 1 µM, first compound 0.3 µM) 3.83% | viability, T/C (second compound 3.16 µM, first compound 0.000949 µM) 8.46% | viability, T/C (second compound 3.16 µM, first compound 0.003 µM) 7.85% | viability, T/C (second compound 3.16 µM, first compound 0.00949 µM) 7.31% | viability, T/C (second compound 3.16 µM, first compound 0.03 µM) 5.89% | viability, T/C (second compound 3.16 µM, first compound 0.0949 µM) 4.55% | viability, T/C (second compound 3.16 µM, first compound 0.3 µM) 2.75% | viability, T/C (second compound 10 µM, first compound 0.000949 µM) 6.68% | viability, T/C (second compound 10 µM, first compound 0.003 µM) 6.39% | viability, T/C (second compound 10 µM, first compound 0.00949 µM) 6.05% | viability, T/C (second compound 10 µM, first compound 0.03 µM) 5.42% | viability, T/C (second compound 10 µM, first compound 0.0949 µM) 3.58% | viability, T/C (second compound 10 µM, first compound 0.3 µM) 2.72%
2.64 nM: IC50 (second compound 0.0316 µM)
< 0.949 nM: IC50 (second compound 0.1 µM) | IC50 (second compound 0.316 µM) | IC50 (second compound 1 µM) | IC50 (second compound 3.16 µM) | IC50 (second compound 10 µM)

CCC(CC)c1cc(NC2CCC(N)C2)n2nccc2n1 (centres undefined) + C#Cc1c(F)ccc2cc(O)cc(-c3ncc4c(N5CC6CCC(C5)N6)nc(OCC56CCCN5CC(F)C6)nc4c3F)c12
inactive: viability, T/C (second compound 0.0316 µM, first compound 0.0316 µM) 79.8% | viability, T/C (second compound 0.0316 µM, first compound 0.1 µM) 77.9% | viability, T/C (second compound 0.0316 µM, first compound 0.316 µM) 79.6% | viability, T/C (second compound 0.0316 µM, first compound 1 µM) 34.8% | viability, T/C (second compound 0.1 µM, first compound 0.0316 µM) 56.6% | viability, T/C (second compound 0.1 µM, first compound 0.1 µM) 77.6% | viability, T/C (second compound 0.1 µM, first compound 0.316 µM) 69% | viability, T/C (second compound 0.1 µM, first compound 1 µM) 32.4% | viability, T/C (second compound 0.316 µM, first compound 0.0316 µM) 32.8% | viability, T/C (second compound 0.316 µM, first compound 0.1 µM) 40% | viability, T/C (second compound 0.316 µM, first compound 0.316 µM) 33.4% | viability, T/C (second compound 0.316 µM, first compound 1 µM) 17.3% | viability, T/C (second compound 1 µM, first compound 0.0316 µM) 16.6% | viability, T/C (second compound 1 µM, first compound 0.1 µM) 21.3% | viability, T/C (second compound 1 µM, first compound 0.316 µM) 19.9% | viability, T/C (second compound 1 µM, first compound 1 µM) 11.3% | viability, T/C (second compound 3.16 µM, first compound 0.0316 µM) 11.1% | viability, T/C (second compound 3.16 µM, first compound 0.1 µM) 14% | viability, T/C (second compound 10 µM, first compound 0.0316 µM) 9.8%
active: viability, T/C (second compound 0.0316 µM, first compound 3.16 µM) 3.07% | viability, T/C (second compound 0.0316 µM, first compound 10 µM) 0.17% | viability, T/C (second compound 0.1 µM, first compound 3.16 µM) 2.77% | viability, T/C (second compound 0.1 µM, first compound 10 µM) 0.13% | viability, T/C (second compound 0.316 µM, first compound 3.16 µM) 2.52% | viability, T/C (second compound 0.316 µM, first compound 10 µM) 0.1% | viability, T/C (second compound 1 µM, first compound 3.16 µM) 2.86% | viability, T/C (second compound 1 µM, first compound 10 µM) 0.14% | viability, T/C (second compound 3.16 µM, first compound 0.316 µM) 12.2% | viability, T/C (second compound 3.16 µM, first compound 1 µM) 10.1% | viability, T/C (second compound 3.16 µM, first compound 3.16 µM) 2.81% | viability, T/C (second compound 3.16 µM, first compound 10 µM) 0.16% | viability, T/C (second compound 10 µM, first compound 0.1 µM) 9.61% | viability, T/C (second compound 10 µM, first compound 0.316 µM) 8.97% | viability, T/C (second compound 10 µM, first compound 1 µM) 6.36% | viability, T/C (second compound 10 µM, first compound 3.16 µM) 2.12% | viability, T/C (second compound 10 µM, first compound 10 µM) 0.21%
< 31.6 nM: IC50 (second compound 0.316 µM) | IC50 (second compound 1 µM) | IC50 (second compound 3.16 µM) | IC50 (second compound 10 µM)
564 nM: IC50 (second compound 0.1 µM)
672 nM: IC50 (second compound 0.0316 µM)
